Each structure is given as a SMILES string.

Drawing on patent publication US10772893B2, “2-(morpholin-4-yl)-1,7-naphthyridines” (BAYER PHARMA AKTIENGESELLSCHAFT, priority 2014, dated 2020), this text covers IC50 for 22 compounds.

Common to all, as to assay: Proliferation assay, crystal violet staining
One assay relates to HeLa-MaTu-ADR cells. It counts as cell-based. Conditions: Homo sapiens, 96 h, 4 days incubation, read-out: Inhibition of HeLa-MaTu-ADR cell proliferation.
The next assay relates to Caco-2 cells. It counts as cell-based. As to conditions: Homo sapiens, Caco-2, 96 h, 4 days incubation, read-out: Inhibition of Caco-2 cell proliferation.
The next assay deals with HeLa cells. Conditions: Homo sapiens, 96 h, read-out: Inhibition of HeLa cell proliferation, HeLa cells, 4 days incubation.
Another assay relates to NCI-H460 cells. As to conditions: Homo sapiens, NCI-H460, 96 h, read-out: Inhibition of NCI-H460 cell proliferation, NCI-H460 cells, 4 days incubation.
In another assay the test system is DU145 cells. Conditions: Homo sapiens, DU-145, 96 h, read-out: Inhibition of DU145 cell proliferation, DU145 cells, 4 days incubation.

Method for Caco-2 cells: (§1) After 24 hours, the cells of one plate (zero plate) were dyed with crystal violet (see below), whereas the medium of the other plates was replaced with fresh culture medium (200 μl) to which the test substances were added in various concentrations (0 μM, and also in the range of 0.001-10 μM; the final concentration of the solvent dimethyl sulphoxide was 0.1 or 0.5%). The cells were incubated for 4 days in the presence of the test substances. […] After washing the fixed cells three times with water, the plates were dried at room temperature. The cells were stained by adding 100 μl/measurement point of a 0.1% strength crystal violet solution (pH adjusted to pH 3 by adding acetic acid). After washing the cells three times with water, the plates were dried at room temperature. The dye was dissolved by adding 100 μl/measurement point of a 10% strength acetic acid solution. […] The percentage change in cell growth was calculated by normalizing the measured values to the absorbance values of the zero plate (=0%) and the absorbance of the untreated (0 W) cells (=100%). The IC50 values were determined by means of a four parameter fit.
Method for DU145 cells: as §1
Method for HeLa-MaTu-ADR cells: as §1
Method for NCI-H460 cells: as §1

Turning to `C[C@@H]1COCCN1c1cc(-c2ccc(S(C)(=N)=O)cc2)c2ccnc(-c3ccn[nH]3)c2n1` (stereo partly drawn) [Example 30, 4-[2-((R)-3-methylmorpholin-4-yl)-8-(2H-pyrazol-3-yl)-[1,7]naphthyridine-4-yl]phenyl-S-methylsulphoximide], the IC50 is more than 3 µM with HeLa-MaTu-ADR cells; 2.89 µM with Caco-2 cells; 0.512 µM in the assay on HeLa cells; 0.293 µM in the assay with NCI-H460 cells; 0.325 µM in the assay with DU145 cells.
`C[C@@H]1COCCN1c1cc(-c2cccc(S(C)(=N)=O)c2)c2ccnc(-c3ccn[nH]3)c2n1` (stereo partly drawn) [Example 31, 3-[2-((R)-3-methylmorpholin-4-yl)-8-(2H-pyrazol-3-yl)-[1,7]naphthyridine-4-yl]phenyl-S-methylsulphoximide]: the IC50 is more than 3 µM with HeLa-MaTu-ADR cells; more than 3 µM in the assay on Caco-2 cells; 1.25 µM in the assay on HeLa cells; 0.685 µM in the assay with NCI-H460 cells; 1.11 µM in the assay on DU145 cells.
As to `CS(=O)(=O)c1cc(N2CCOCC2)nc2c(-c3cc[nH]n3)nccc12` [Example 32], the IC50 in the assay on HeLa-MaTu-ADR cells was more than 3 µM; with Caco-2 cells, more than 3 µM; in the assay on HeLa cells, 1.56 µM; with NCI-H460 cells, more than 3 µM; in the assay with DU145 cells it was 1.84 µM.
As to `N#Cc1cc(N2CCOCC2)nc2c(-c3cc[nH]n3)nccc12` [Example 34, 2-(morpholin-4-yl)-8-(1H-pyrazol-3-yl)-[1,7]naphthyridine-4-carbonitrile], the IC50 was more than 3 µM in the assay on HeLa-MaTu-ADR cells; 4.99 µM in the assay on Caco-2 cells; 1.02 µM in the assay on HeLa cells; 1.63 µM in the assay on NCI-H460 cells; 2.39 µM in the assay with DU145 cells.
The corresponding values for `CC(C)Oc1cc(N2CCOCC2)nc2c(-c3cc[nH]n3)nccc12` [Example 40, 4-Isopropoxy-2-(morpholin-4-yl)-8-(1H-pyrazol-3-yl)-[1,7]naphthyridine] are 2.26 µM, 1.97 µM, 2.72 µM, 0.672 µM and 1.15 µM.
The corresponding values for `COc1cc(N2CCOCC2)nc2c(-c3cc[nH]n3)nccc12` [Example 44, 4-methoxy-2-(morpholin-4-yl)-8-(1H-pyrazol-3-yl)-[1,7]naphthyridine] are more than 10 µM, 7.69 µM, 1.01 µM, 2.01 µM and 4.45 µM.
The like results for `CC(C)Oc1cc(N2CCOC[C@H]2C)nc2c(-c3cc[nH]n3)nccc12` [Example 51, 4-Isopropoxy-2-((R)-3-methylmorpholin-4-yl)-8-(1H-pyrazol-3-yl)-[1,7]naphthyridine] were, in that order, 1.8 µM, 2.93 µM, 1.23 µM, 0.391 µM and 0.895 µM.
For `c1cc2c(C3CCOCC3)cc(N3CCOCC3)nc2c(-c2cc[nH]n2)n1` [Example 60, 2-(morpholin-4-yl)-8-(1H-pyrazol-5-yl)-4-(tetrahydro-2H-pyran-4-yl)-1,7-naphthyridine], the IC50 with HeLa-MaTu-ADR cells was found to be 2.17 µM; in the assay on Caco-2 cells, 1.98 µM; in the assay on HeLa cells, 0.998 µM; with NCI-H460 cells, 0.691 µM; with DU145 cells it was 0.73 µM.
As for `Cc1nc(S(C)(=O)=O)ccc1-c1cc(N2CCOC[C@H]2C)nc2c(-c3ccn[nH]3)nccc12` [Example 73, 4-[2-methyl-6-(methylsulfonyl)pyridin-3-yl]-2-[(3R)-3-methylmorpholin-4-yl]-8-(1H-pyrazol-5-yl)-1,7-naphthyridine], the IC50 is 1.79 µM in the assay with HeLa-MaTu-ADR cells; 0.631 µM in the assay with Caco-2 cells; 0.181 µM in the assay with HeLa cells; 0.059 µM with NCI-H460 cells; 0.748 µM in the assay on DU145 cells.
Consider `C[C@@H]1COCCN1c1cc(-c2ccc(S(C)(=O)=O)cc2F)c2ccnc(-c3ccn[nH]3)c2n1` [Example 74, 4-[2-fluoro-4-(methylsulfonyl)phenyl]-2-[(3R)-3-methylmorpholin-4-yl]-8-(1H-pyrazol-5-yl)-1,7-naphthyridine], for which the IC50 is more than 1 µM in the assay with HeLa-MaTu-ADR cells; more than 1 µM with Caco-2 cells; 0.203 µM with HeLa cells; more than 1 µM with NCI-H460 cells; more than 1 µM in the assay with DU145 cells.
Turning to `Cc1cc(S(C)(=O)=O)ncc1-c1cc(N2CCOC[C@H]2C)nc2c(-c3ccn[nH]3)nccc12` [Example 79, 4-[4-methyl-6-(methylsulfonyl)pyridin-3-yl]-2-[(3R)-3-methylmorpholin-4-yl]-8-(1H-pyrazol-5-yl)-1,7-naphthyridine], the IC50 in the assay on HeLa-MaTu-ADR cells is 2.3 µM; with Caco-2 cells, 0.868 µM; in the assay on HeLa cells it was 0.303 µM; with NCI-H460 cells, 0.0937 µM; in the assay on DU145 cells it was 0.656 µM.
The like results for `Cc1ccc(-c2cc(N3CCOC[C@H]3C)nc3c(-c4ccn[nH]4)nccc23)cn1` [Example 88, 2-[(3R)-3-methylmorpholin-4-yl]-4-(6-methylpyridin-3-yl)-8-(1H-pyrazol-5-yl)-1,7-naphthyridine] were, in that order, 0.291 µM, 0.286 µM, 0.157 µM, 0.0817 µM and 0.104 µM.
Regarding `CCS(=O)(CC)=Nc1cc(N2CCOC[C@H]2C)nc2c(-c3ccn[nH]3)nccc12` [Example 126, 4-{[diethyl(oxido)-λ^6-sulfanylidene]amino}-2-[(3R)-3-methylmorpholin-4-yl]-8-(1H-pyrazol-5-yl)-1,7-naphthyridine], the IC50 in the assay on HeLa-MaTu-ADR cells worked out at 0.595 µM; in the assay with Caco-2 cells, 0.34 µM; in the assay with HeLa cells, 0.17 µM; with NCI-H460 cells it was 0.0884 µM; in the assay with DU145 cells, 0.094 µM.
The corresponding values for `C[C@@H]1COCCN1c1cc(N=S2(=O)CCCC2)c2ccnc(-c3ccn[nH]3)c2n1` [Example 137, N-{2-[(3R)-3-methylmorpholin-4-yl]-8-(1H-pyrazol-5-yl)-1,7-naphthyridin-4-yl}tetrahydro-1H-1λ^4-thiophen-1-imine 1-oxide] are 0.791 µM, 0.549 µM, 0.383 µM, 0.153 µM and 0.146 µM.
The corresponding values for `C[C@@H]1COCCN1c1cc(N2CCOCC2)c2ccnc(-c3ccn[nH]3)c2n1` [Example 145, 2-[(3R)-3-methylmorpholin-4-yl]-4-(morpholin-4-yl)-8-(1H-pyrazol-5-yl)-1,7-naphthyridine] are 0.522 µM, 0.492 µM, 0.248 µM, 0.0906 µM and 0.0305 µM.
As for `CC(C)S(=O)(=O)c1ccc(-c2cc(N3CCOC[C@H]3C)nc3c(-c4ccn[nH]4)nccc23)cc1` [Example 151, 4-[4-(isopropylsulfonyl)phenyl]-2-[(3R)-3-methylmorpholin-4-yl]-8-(1H-pyrazol-5-yl)-1,7-naphthyridine], the IC50 in the assay with HeLa-MaTu-ADR cells was 2.15 µM; in the assay with Caco-2 cells, 2.05 µM; in the assay on HeLa cells, 0.921 µM; with NCI-H460 cells, 0.673 µM; in the assay on DU145 cells, 1.9 µM.
The corresponding values for `C[C@@H]1COCCN1c1cc(N2CCN(C)C(=O)C2)c2ccnc(-c3ccn[nH]3)c2n1` [Example 157, 1-methyl-4-{2-[(3R)-3-methylmorpholin-4-yl]-8-(1H-pyrazol-5-yl)-1,7-naphthyridin-4-yl}piperazin-2-one] are more than 3 µM, more than 3 µM, 0.872 µM, more than 3 µM and more than 3 µM.
The like results for `CC(C)[S+]([O-])c1cc(N2CCOCC2)nc2c(-c3ccn[nH]3)nccc12` (centres unmarked) [Example 196, 2-(morpholin-4-yl)-4-[propan-2-ylsulfinyl]-8-(1H-pyrazol-5-yl)-1,7-naphthyridine] were, in that order, more than 3 µM, 0.869 µM, 1.02 µM, 0.291 µM and 0.144 µM.
The corresponding values for `C[C@@H]1COCCN1c1cc(OCCCS(C)(=O)=O)c2ccnc(-c3ccn[nH]3)c2n1` [Example 197, 2-[(3R)-3-methylmorpholin-4-yl]-4-[3-(methylsulfonyl)propoxy]-8-(1H-pyrazol-5-yl)-1,7-naphthyridine] are more than 3 µM, more than 3 µM, 1.01 µM, 0.516 µM and 0.129 µM.
`CC(C)S(=O)(=O)c1cc(N2CCOCC2)nc2c(-c3ccn[nH]3)nccc12` [Example 199, 2-(morpholin-4-yl)-4-(propan-2-ylsulfonyl)-8-(1H-pyrazol-5-yl)-1,7-naphthyridine]: the IC50 was found to be 0.965 µM in the assay on HeLa-MaTu-ADR cells; 0.708 µM in the assay with Caco-2 cells; 0.857 µM in the assay on HeLa cells; 0.32 µM with NCI-H460 cells; 0.244 µM in the assay with DU145 cells.
`C[C@@H]1COCCN1c1cc(-c2ccn[nH]2)c2ccnc(-c3ccn[nH]3)c2n1` [Example 205, 2-[(3R)-3-methylmorpholin-4-yl]-4,8-di(1H-pyrazol-5-yl)-1,7-naphthyridine]: the IC50 in the assay on HeLa-MaTu-ADR cells was 1.49 µM; in the assay on Caco-2 cells, 1.24 µM; in the assay with HeLa cells it was 0.672 µM; with NCI-H460 cells, 0.219 µM; in the assay on DU145 cells it was 0.652 µM.
The corresponding values for `O=S1(=O)CCCN1c1cc(N2CCOCC2)nc2c(-c3ccn[nH]3)nccc12` [Example 216, 4-(1,1-dioxido-1,2-thiazolidin-2-yl)-2-(morpholin-4-yl)-8-(1H-pyrazol-5-yl)-1,7-naphthyridine] are more than 3 µM, more than 3 µM, 1.01 µM, 1.11 µM and 1.66 µM.
